In PubChem BioAssay AID248 (DTP/NCI, 2004):
Several values for one entry are separate records, joined by “and”; a condition that tells them apart may be missing. Identical values can stand only once. Inconclusive results and toxic doses are left out. Cut-off read from the data, not from the text of the source: active = T/C of 150% or more; inactive = T/C below 125%.

Tested on: L1210 leukemia ip in BDF1 mice, survival T/C
Assay: NCI In Vivo Anticancer Drug Screen. Data for tumor model L1210 Leukemia (intraperitoneal) in B6D2F1 (BDF1) mice
Settings: endpoint: mean survival time, higher = longer survival
How it was run: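 Ratio derived from survival: compound-dosed mice over vehicle-dosed mice, all bearing a transplantable tumor.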

[1] = dose: 100.0 mg/kg/injection, schedule: Q04DX003 (ip), vehicle: saline with Tween-80
[2] = dose: 200.0 mg/kg/injection, schedule: Q04DX003 (ip), vehicle: saline with Tween-80
[3] = dose: 400.0 mg/kg/injection, schedule: Q04DX003 (ip), vehicle: saline with Tween-80
[4] = dose: 100.0 mg/kg/injection, schedule: Q01DX001 (ip), vehicle: saline
[5] = dose: 200.0 mg/kg/injection, schedule: Q01DX001 (ip), vehicle: saline
[6] = dose: 400.0 mg/kg/injection, schedule: Q01DX001 (ip), vehicle: saline
[7] = dose: 100.0 mg/kg/injection, schedule: Q04DX003 (ip), vehicle: saline
[8] = dose: 200.0 mg/kg/injection, schedule: Q04DX003 (ip), vehicle: saline
[9] = dose: 25.0 mg/kg/injection, schedule: Q01DX009 (ip), vehicle: saline
[10] = dose: 50.0 mg/kg/injection, schedule: Q01DX009 (ip), vehicle: saline
[11] = dose: 50.0 mg/kg/injection, schedule: Q04DX003 (ip), vehicle: saline
[12] = dose: 400.0 mg/kg/injection, schedule: Q04DX003 (ip), vehicle: saline
[13] = dose: 100.0 mg/kg/injection, schedule: Q01DX009 (ip), vehicle: saline with Tween-80
[14] = dose: 100.0 mg/kg/injection, schedule: Q04DX003 (ip), vehicle: Klucel (hydroxypropylcellulose) (HPC)
[15] = dose: 200.0 mg/kg/injection, schedule: Q01DX009 (ip), vehicle: saline with Tween-80
[16] = dose: 200.0 mg/kg/injection, schedule: Q04DX003 (ip), vehicle: Klucel (hydroxypropylcellulose) (HPC)
[17] = dose: 400.0 mg/kg/injection, schedule: Q04DX003 (ip), vehicle: Klucel (hydroxypropylcellulose) (HPC)

Measured: T/C

CN(C)C(=O)Nc1cccc(OC(=O)NC2CCCC2)c1
inactive: [1] 100 % of control | [2] 95 % of control | [3] 100 % of control

CC(C)(CO)N=Cc1cccc(Br)c1
inactive: [4] 96 % of control | [5] 98 % of control | [6] 98 % of control

COC(=O)c1cc(-c2ccccc2)[nH]c1-c1ccc2ccccc2n1
inactive: dose: 100.0 mg/kg/injection, schedule: Q01DX001 (ip), vehicle: steriod suspending solution 100 % of control | dose: 200.0 mg/kg/injection, schedule: Q01DX001 (ip), vehicle: steriod suspending solution 100 % of control | dose: 400.0 mg/kg/injection, schedule: Q01DX001 (ip), vehicle: steriod suspending solution 94 % of control

c1ccc(NC(Nc2ccccn2)c2ccncc2)nc1
inactive: [1] 104 % of control | [2] 111 % of control

CSC1OC(C(NC(=O)N(C)N=O)C(C)O)C(O)C(O)C1O (centres undefined)
inactive: [7] 105 % of control | [8] 118 % of control

COC1CC2C(C[CH]1[Hg][Cl])C2(Cl)Cl (centres undefined)
inactive: dose: 3.13 mg/kg/injection, schedule: Q01DX009 (ip), vehicle: saline with Tween-80 103 % of control | dose: 6.25 mg/kg/injection, schedule: Q01DX009 (ip), vehicle: saline with Tween-80 94 % of control | dose: 6.25 mg/kg/injection, schedule: Q04DX003 (ip), vehicle: saline with Tween-80 105 % of control | dose: 12.5 mg/kg/injection, schedule: Q01DX009 (ip), vehicle: saline with Tween-80 96 % of control | dose: 12.5 mg/kg/injection, schedule: Q04DX003 (ip), vehicle: saline with Tween-80 96 % of control

CN(C)CC/C=C1\c2ccccc2CSc2ccccc21
inactive: dose: 6.25 mg/kg/injection, schedule: Q01DX009 (ip), vehicle: saline 95 % of control | dose: 12.5 mg/kg/injection, schedule: Q01DX009 (ip), vehicle: saline 108 % of control | [9] 109 % of control | dose: 25.0 mg/kg/injection, schedule: Q04DX003 (ip), vehicle: saline 100 % of control | [10] 101 % of control | [11] 89 % of control | [7] 97 % of control

CCN1CCC(CNc2cc(C)nc(/N=C(\N)Nc3cc(Cl)cc(Cl)c3)n2)C1 (centres undefined)
inactive: dose: 12.5 mg/kg/injection, schedule: Q04DX003 (ip), vehicle: Klucel (hydroxypropylcellulose) (HPC) 102 % of control | dose: 25.0 mg/kg/injection, schedule: Q04DX003 (ip), vehicle: Klucel (hydroxypropylcellulose) (HPC) 105 % of control | dose: 50.0 mg/kg/injection, schedule: Q04DX003 (ip), vehicle: Klucel (hydroxypropylcellulose) (HPC) 105 % of control

O=CNc1cc2c3c(c1)CCCN3CCC2
inactive: dose: 12.5 mg/kg/injection, schedule: Q01DX001 (ip), vehicle: saline 102 % of control | dose: 25.0 mg/kg/injection, schedule: Q01DX001 (ip), vehicle: saline 108 % of control | [9] 105 % of control | dose: 50.0 mg/kg/injection, schedule: Q01DX001 (ip), vehicle: saline 107 % of control | [10] 106 % of control | [4] 100 % of control

CCCCOC(=O)CSC(=O)C(O)c1ccccc1 (centres undefined)
inactive: [1] 105 % of control | [2] 101 % of control | [3] 103 % of control

C/C(=C/C1CC(=O)OC1=O)CC(C)(C)C (centres undefined)
inactive: dose: 222.0 mg/kg/injection, schedule: Q01DX Z (ip), vehicle: methylcellulose (MC) 108 % of control | dose: 333.0 mg/kg/injection, schedule: Q01DX Z (ip), vehicle: methylcellulose (MC) 92 % of control

CCC(C)C1NC(=O)C2C(CCN2C(=O)C(NC(=O)C(Cc2ccccc2)N(C)C)C(C)CC)Oc2ccc(cc2)/C=C\NC1=O (centres undefined)
inactive: [7] 94 % of control | [8] 97 % of control | [12] 92 % of control

CN(C)CC1CCCCC1=O (centres undefined)
inactive: [13] 97 % of control | [14] 102 % of control | [7] 103 % of control | [15] 96 % of control | [16] 102 % of control | [8] 110 % of control | [17] 97 % of control | [12] 103 % of control

CC(C)(C)CC(=O)OCCC[N+](C)(C)C
inactive: dose: 25.0 mg/kg/injection, schedule: Q01DX009 (ip), vehicle: water 104 % of control | dose: 50.0 mg/kg/injection, schedule: Q01DX009 (ip), vehicle: water 106 % of control

CCCCC(=O)N/N=C/c1ccc(OC)c(O)c1
inactive: [4] 109 % of control | [5] 104 % of control | [6] 106 % of control

NN=C1C(Cl)=C(Cl)C(Cl)=C1Cl
inactive: [14] 93 % of control | [16] 93 % of control | [17] 98 % of control

CC1=CC(C)(C2(O)c3ccccc3-c3ccccc32)C=C(C)C1
inactive: [1] 98 % of control | [2] 95 % of control | [3] 95 % of control

O=C(Nc1ccc(Cl)cc1)OCCN(CCOC(=O)Nc1ccc(Cl)cc1)Cc1ccccc1
inactive: [4] 101 % of control | [5] 95 % of control | [6] 95 % of control

S=c1nc[nH]c2[nH]ncc12
inactive: dose: 100.0 mg/kg/injection, schedule: Q01DX001 (ip), vehicle: carboxymethylcellulose (CMC) 108 % of control | dose: 200.0 mg/kg/injection, schedule: Q01DX001 (ip), vehicle: carboxymethylcellulose (CMC) 93 % of control | dose: 400.0 mg/kg/injection, schedule: Q01DX001 (ip), vehicle: carboxymethylcellulose (CMC) 93 % of control

C=CCc1ccc(OCCOCCN(C)C2CCCCC2)c(OC)c1
inactive: [14] 90 % of control

O/N=C/c1ccc2ccccc2n1
inactive: dose: 18.75 mg/kg/injection, schedule: Q01DX009 (ip), vehicle: Klucel (hydroxypropylcellulose) (HPC) 105 % of control | dose: 18.75 mg/kg/injection, schedule: Q04DX003 (ip), vehicle: Klucel (hydroxypropylcellulose) (HPC) 97 % of control | dose: 37.5 mg/kg/injection, schedule: Q01DX009 (ip), vehicle: Klucel (hydroxypropylcellulose) (HPC) 100 % of control | dose: 37.5 mg/kg/injection, schedule: Q04DX003 (ip), vehicle: Klucel (hydroxypropylcellulose) (HPC) 103 % of control | dose: 75.0 mg/kg/injection, schedule: Q01DX009 (ip), vehicle: Klucel (hydroxypropylcellulose) (HPC) 113 % of control | dose: 75.0 mg/kg/injection, schedule: Q04DX003 (ip), vehicle: Klucel (hydroxypropylcellulose) (HPC) 97 % of control and 103 % of control

COc1cc(OC)c(OC)cc1OC
inactive: [13] 95 % of control | [15] 97 % of control

CC(=O)C1CC2C=CCC(C2)C1 (centres undefined)
inactive: dose: 100.0 mg/kg/injection, schedule: Q01DX001 (ip), vehicle: saline with Tween-80 95 % of control | dose: 200.0 mg/kg/injection, schedule: Q01DX001 (ip), vehicle: saline with Tween-80 90 % of control | dose: 400.0 mg/kg/injection, schedule: Q01DX001 (ip), vehicle: saline with Tween-80 96 % of control

OC(CNc1ccc(Cl)cc1)CN1CCCCC1 (centres undefined)
inactive: [11] 91 % of control | [4] 100 % of control | [7] 98 % of control | [5] 90 % of control

CN(C(=S)SSC(=S)N(C)c1ccccc1)c1ccccc1
inactive: dose: 25.0 mg/kg/injection, schedule: Q01DX009 (ip), vehicle: Klucel (hydroxypropylcellulose) (HPC) 96 % of control | dose: 50.0 mg/kg/injection, schedule: Q01DX009 (ip), vehicle: Klucel (hydroxypropylcellulose) (HPC) 101 % of control | dose: 100.0 mg/kg/injection, schedule: Q01DX009 (ip), vehicle: Klucel (hydroxypropylcellulose) (HPC) 101 % of control | [14] 105 % of control | [16] 89 % of control | [17] 93 % of control
